From ChEMBL document CHEMBL3526017, “Predicting the drug interaction potential of AMG 853, a dual antagonist of the D-prostanoid and chemoattractant receptor-homologous molecule expressed on T helper 2 cells receptors” (Drug Metab Dispos, 2012)

Key:
[1] = target: UDP-glucuronosyltransferase 1A4 (Homo sapiens, UniProt P22310); assay: Drug metabolism assessed as human recombinant UGT1A4-mediated compound formation treated with AMG 853 at 10 uM after 30 mins by LC-MS/MS analysis; assay type: ADME; details: recombinant enzyme, 0.5 h
[2] = target: T1, UDP-glucuronosyltransferase 1A3 (Homo sapiens, UniProt P35503); assay: Drug metabolism assessed as human recombinant UGT1A3-mediated compound formation treated with AMG 853 after 45 mins by LC-MS/MS analysis in presence of UDPGA; assay type: ADME; details: recombinant enzyme, 0.75 h
T1 sequence (P35503 whole entry): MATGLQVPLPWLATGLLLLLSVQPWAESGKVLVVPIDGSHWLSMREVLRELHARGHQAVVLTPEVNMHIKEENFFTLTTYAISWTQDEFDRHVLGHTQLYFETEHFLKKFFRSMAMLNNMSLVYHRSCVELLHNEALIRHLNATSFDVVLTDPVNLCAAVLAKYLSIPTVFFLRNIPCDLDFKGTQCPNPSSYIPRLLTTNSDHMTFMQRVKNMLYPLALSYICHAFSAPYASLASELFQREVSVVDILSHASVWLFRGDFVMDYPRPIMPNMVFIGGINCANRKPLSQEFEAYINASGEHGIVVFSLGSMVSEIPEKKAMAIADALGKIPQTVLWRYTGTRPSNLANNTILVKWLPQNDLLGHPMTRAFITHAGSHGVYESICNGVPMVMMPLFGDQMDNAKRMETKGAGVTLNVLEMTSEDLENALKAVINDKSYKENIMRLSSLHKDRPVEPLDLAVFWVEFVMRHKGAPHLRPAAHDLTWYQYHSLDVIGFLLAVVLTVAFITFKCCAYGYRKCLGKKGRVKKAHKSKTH

Liver microsome [3] = assay: Drug metabolism in human liver microsomes treated with AMG 853 after 45 mins by LC-MS/MS analysis in presence of UDPGA; assay type: ADME; details: 0.75 h
[4] = Fraction unbound in plasma (unknown origin); assay type: ADME, cell-free
[5] = (§1) Drug metabolism in human liver microsomes assessed as CYP3A5*1/*1-mediated (2S,3S,4S,5R,6S)-6-(2-(4-(4-(tert-butylcarbamoyl)-2-(2-chloro-4-cyclopropylphenylsulfonamido)phenoxy)-5-chloro-2-fluorophenyl)acetoxy)-3,4,5-trihydroxytetrahydro-2H-pyran-2-carboxylic acid formation after 15 mins by LC-MS/MS analysis in presence of UDPGA; assay type: ADME; details: 0.25 h
[6] = Cmax in healthy human at 50 mg, po; assay type: ADME, organism-based; design: dose 50 mg, route oral; details: in vivo
Cytochrome P450 3A4 = Cytochrome P450 3A4 (Homo sapiens, UniProt P08684); assay: Drug metabolism assessed as recombinant CYP3A4 (unknown origin)-mediated 2-(5-chloro-4-(2-(2-chloro-4-cyclopropylphenylsulfonamido)-4-(1-hydroxy-2-methylpropan-2-ylcarbamoyl)phenoxy)-2-fluorophenyl)acetic acid formation at 10 uM after 30 mins by LC-MS/MS analysis; assay type: ADME; details: recombinant enzyme, 0.5 h
Liver microsome [7] = assay: Drug metabolism in human liver microsomes assessed as 2-(4-(4-(tert-butylcarbamoyl)-2-(2-chloro-4-(1-hydroxycyclopropyl)phenylsulfonamido)phenoxy)-5-chloro-2-fluorophenyl)acetic acid formation at 2 uM after 60 mins by LC-MS/MS analysis in presence of montelukast; assay type: ADME; details: 1 h
Cytochrome P450 2C8 = target: T2, Cytochrome P450 2C8 (Homo sapiens, UniProt P10632); assay: Inhibition of CYP2C8 in human liver microsomes assessed as paclitaxel 6-hydroxylation after 5 to 30 mins by LC-MS/MS analysis; assay type: ADME
T2 sequence (P10632 whole entry): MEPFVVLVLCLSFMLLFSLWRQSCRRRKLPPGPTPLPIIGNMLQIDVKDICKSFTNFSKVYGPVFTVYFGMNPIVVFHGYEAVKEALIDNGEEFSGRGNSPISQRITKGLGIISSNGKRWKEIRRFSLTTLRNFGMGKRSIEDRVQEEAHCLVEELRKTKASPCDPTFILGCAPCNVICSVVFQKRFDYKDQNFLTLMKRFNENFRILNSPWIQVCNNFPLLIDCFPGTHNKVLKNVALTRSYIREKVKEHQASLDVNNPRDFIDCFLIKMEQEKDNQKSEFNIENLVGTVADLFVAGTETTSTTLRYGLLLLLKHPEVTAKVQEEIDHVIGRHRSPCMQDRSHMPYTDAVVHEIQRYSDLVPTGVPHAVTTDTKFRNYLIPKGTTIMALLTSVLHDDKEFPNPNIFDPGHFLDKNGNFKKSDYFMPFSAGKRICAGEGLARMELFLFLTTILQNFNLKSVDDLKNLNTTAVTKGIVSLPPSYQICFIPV

[8] = as §1, with “[…]-mediated” for “CYP3A5*1/*1-mediated”, “UDPGA and NADPH” for “UDPGA”; assay type: ADME; details: 0.25 h
CYP2B6 = assay: Upregulation of CYP2B6 mRNA expression in human hepatocytes at 0.3 to 30 uM treated every 24 hrs for 2 days measured on day 5 relative to control; assay type: ADME, cell-based, Hepatocyte; details: read-out: FC
[9] = target: UDP-glucuronosyltransferase 1A6 (Homo sapiens, UniProt P19224); assay: (§2) Drug metabolism assessed as human recombinant UGT1A6-mediated (2S,3S,4S,5R,6S)-6-(2-(4-(4-(tert-butylcarbamoyl)-2-(2-chloro-4-cyclopropylphenylsulfonamido)phenoxy)-5-chloro-2-fluorophenyl)acetoxy)-3,4,5-trihydroxytetrahydro-2H-pyran-2-carboxylic acid formation at 10 uM after 30 mins by LC-MS/MS analysis; assay type: ADME; details: recombinant enzyme, 0.5 h
[10] = AUC (0 to infinity) in healthy human at 50 mg, po; assay type: ADME, organism-based; design: dose 50 mg, route oral, time infinity; details: plasma
Cytochrome P450 2J2 = target: T3, Cytochrome P450 2J2 (Homo sapiens, UniProt P51589); assay: Drug metabolism assessed as recombinant CYP2J2 (unknown origin)-mediated 2-(4-(4-(tert-butylcarbamoyl)-2-(2-chloro-4-(1-hydroxycyclopropyl)phenylsulfonamido)phenoxy)-5-chloro-2-fluorophenyl)acetic acid formation at 10 uM after 30 mins by LC-MS/MS analysis; assay type: ADME; details: recombinant enzyme, 0.5 h
T3 sequence (P51589 whole entry): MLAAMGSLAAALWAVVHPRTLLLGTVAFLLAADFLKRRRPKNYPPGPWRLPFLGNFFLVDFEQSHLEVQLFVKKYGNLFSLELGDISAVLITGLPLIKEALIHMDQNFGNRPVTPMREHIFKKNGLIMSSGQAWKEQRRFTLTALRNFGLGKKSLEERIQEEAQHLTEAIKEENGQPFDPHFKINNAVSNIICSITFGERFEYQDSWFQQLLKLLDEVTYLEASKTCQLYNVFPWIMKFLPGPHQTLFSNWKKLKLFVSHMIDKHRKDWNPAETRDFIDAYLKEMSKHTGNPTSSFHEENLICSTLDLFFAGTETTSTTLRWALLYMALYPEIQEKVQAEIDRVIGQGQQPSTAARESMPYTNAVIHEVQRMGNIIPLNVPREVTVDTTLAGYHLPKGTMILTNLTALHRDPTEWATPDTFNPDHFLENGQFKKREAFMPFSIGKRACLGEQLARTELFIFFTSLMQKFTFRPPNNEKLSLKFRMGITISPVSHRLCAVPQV

CYP1A2 = CYP1A2 (Homo sapiens, UniProt P05177); assay: Induction of CYP1A2 in human hepatocytes using phenacetin as substrate at 0.3 to 30 uM treated every 24 hrs for 2 days measured on day 5 by LC-MS/MS analysis relative to control; assay type: ADME, cell-based, Hepatocyte; details: probe phenacetin, read-out: FC
[11] = target: UDP-glucuronosyltransferase 1A7 (Homo sapiens, UniProt Q9HAW7); assay: as §2, with “UGT1A7-mediated” for “UGT1A6-mediated”; assay type: ADME; details: recombinant enzyme, 0.5 h
Sequence of UDP-glucuronosyltransferase 1A7 (Q9HAW7 whole entry): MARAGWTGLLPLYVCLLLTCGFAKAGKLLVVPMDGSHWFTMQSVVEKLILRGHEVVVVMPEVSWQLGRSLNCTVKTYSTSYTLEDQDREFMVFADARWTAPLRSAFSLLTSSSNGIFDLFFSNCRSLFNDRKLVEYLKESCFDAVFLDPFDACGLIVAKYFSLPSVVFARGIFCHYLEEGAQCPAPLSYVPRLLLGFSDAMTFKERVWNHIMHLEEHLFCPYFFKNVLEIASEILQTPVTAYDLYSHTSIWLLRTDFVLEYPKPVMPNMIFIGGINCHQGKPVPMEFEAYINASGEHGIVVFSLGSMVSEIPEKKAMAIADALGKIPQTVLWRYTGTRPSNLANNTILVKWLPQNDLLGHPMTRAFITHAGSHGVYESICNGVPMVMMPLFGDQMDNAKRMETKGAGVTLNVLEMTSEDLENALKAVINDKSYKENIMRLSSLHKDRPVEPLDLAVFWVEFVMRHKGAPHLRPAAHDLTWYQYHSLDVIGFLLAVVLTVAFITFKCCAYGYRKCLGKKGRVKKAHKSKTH

Sequence of UDP-glucuronosyltransferase 1A4 (P22310 whole entry): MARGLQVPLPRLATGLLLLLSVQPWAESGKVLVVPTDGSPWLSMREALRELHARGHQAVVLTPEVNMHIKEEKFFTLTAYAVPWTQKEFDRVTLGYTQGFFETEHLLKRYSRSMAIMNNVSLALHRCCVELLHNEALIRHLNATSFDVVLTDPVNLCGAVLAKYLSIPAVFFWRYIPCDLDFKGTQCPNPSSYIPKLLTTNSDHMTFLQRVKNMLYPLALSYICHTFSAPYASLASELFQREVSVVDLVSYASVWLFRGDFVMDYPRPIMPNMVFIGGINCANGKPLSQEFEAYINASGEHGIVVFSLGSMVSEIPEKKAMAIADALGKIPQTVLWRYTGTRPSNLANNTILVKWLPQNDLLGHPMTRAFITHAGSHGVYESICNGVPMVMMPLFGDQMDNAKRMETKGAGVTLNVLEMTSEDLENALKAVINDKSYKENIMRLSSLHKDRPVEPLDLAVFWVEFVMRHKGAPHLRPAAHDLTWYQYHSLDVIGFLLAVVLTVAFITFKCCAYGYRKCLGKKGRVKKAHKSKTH
Sequence of UDP-glucuronosyltransferase 1A6 (P19224 whole entry): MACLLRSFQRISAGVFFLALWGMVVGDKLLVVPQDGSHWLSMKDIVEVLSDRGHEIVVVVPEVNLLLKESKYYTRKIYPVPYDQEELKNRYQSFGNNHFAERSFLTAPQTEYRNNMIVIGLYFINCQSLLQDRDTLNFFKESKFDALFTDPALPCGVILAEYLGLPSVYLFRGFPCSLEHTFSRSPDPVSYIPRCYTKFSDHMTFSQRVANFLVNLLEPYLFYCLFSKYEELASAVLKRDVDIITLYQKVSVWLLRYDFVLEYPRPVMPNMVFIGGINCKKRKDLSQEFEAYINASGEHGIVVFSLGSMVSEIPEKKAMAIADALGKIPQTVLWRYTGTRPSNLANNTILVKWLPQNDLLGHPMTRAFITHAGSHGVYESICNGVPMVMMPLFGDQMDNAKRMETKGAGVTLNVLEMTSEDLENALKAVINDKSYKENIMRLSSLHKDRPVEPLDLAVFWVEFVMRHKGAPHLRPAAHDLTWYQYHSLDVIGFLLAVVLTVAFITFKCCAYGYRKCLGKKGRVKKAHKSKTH
Sequence of Cytochrome P450 3A4 (P08684 whole entry): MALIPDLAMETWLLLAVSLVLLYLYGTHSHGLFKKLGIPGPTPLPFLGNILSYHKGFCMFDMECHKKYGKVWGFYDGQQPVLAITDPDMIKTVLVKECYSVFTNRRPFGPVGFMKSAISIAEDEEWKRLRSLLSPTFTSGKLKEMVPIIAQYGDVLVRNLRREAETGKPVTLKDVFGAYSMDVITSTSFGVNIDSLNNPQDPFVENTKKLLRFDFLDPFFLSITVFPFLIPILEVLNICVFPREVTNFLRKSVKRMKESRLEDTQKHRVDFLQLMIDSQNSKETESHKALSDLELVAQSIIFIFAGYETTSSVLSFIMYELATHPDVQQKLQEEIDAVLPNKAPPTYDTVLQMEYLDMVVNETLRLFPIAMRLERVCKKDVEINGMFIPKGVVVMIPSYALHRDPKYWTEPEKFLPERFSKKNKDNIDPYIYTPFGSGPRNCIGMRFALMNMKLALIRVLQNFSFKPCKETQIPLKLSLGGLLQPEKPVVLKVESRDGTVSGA
Sequence of CYP1A2 (P05177 whole entry): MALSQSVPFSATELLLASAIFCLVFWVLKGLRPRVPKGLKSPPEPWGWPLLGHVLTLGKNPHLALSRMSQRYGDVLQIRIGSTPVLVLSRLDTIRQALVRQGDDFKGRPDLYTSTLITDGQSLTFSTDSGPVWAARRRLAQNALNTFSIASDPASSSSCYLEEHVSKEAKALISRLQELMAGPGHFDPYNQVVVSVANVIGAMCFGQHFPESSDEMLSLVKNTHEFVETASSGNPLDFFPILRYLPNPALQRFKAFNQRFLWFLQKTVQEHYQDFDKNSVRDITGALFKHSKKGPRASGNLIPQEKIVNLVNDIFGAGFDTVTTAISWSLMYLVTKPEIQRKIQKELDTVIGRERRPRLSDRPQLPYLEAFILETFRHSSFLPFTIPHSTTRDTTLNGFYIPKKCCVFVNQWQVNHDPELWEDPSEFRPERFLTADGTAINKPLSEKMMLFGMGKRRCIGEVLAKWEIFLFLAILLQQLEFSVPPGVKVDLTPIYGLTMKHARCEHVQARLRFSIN

Drug metabolism [1]	S50 [2] [µM]	Vmax [2] [pmol/min/mg]	S50 (Liver microsome [3]) [µM]	Vmax (Liver microsome [3]) [pmol/min/mg]	fraction unbound [4]	Cmax [6] [ng/mL]	Drug metabolism (Cytochrome P450 3A4)	Drug metabolism (Liver microsome [7])	IC50 (Cytochrome P450 2C8) [µM]	fold induction at 48 h, up to 30 µM (CYP2B6)	AUC(0-inf) [10] [ng·h/mL]	Drug metabolism (Cytochrome P450 2J2)	fold induction at 48 h, up to 30 µM (CYP1A2)	SMILES	Drug metabolism [5]	Drug metabolism [8]	Drug metabolism [9]	Drug metabolism [11]
metabolite_detected	379.2	39.1	205.4	43										CC(C)(C)NC(=O)c1ccc(Oc2cc(F)c(CC(=O)O[C@@H]3O[C@H](C(=O)O)[C@@H](O)[C@H](O)[C@H]3O)cc2Cl)c(NS(=O)(=O)c2ccc(C3CC3)cc2Cl)c1				
					0.003	227	metabolite_detected	metabolite_not_detected	5.4	1.7	671	metabolite_detected	1.4	CC(C)(C)NC(=O)c1ccc(Oc2cc(F)c(CC(=O)O)cc2Cl)c(NS(=O)(=O)c2ccc(C3CC3)cc2Cl)c1 [VIDUPIPRANT]	metabolite_detected	metabolite_not_detected	metabolite_not_detected	metabolite_not_detected
